Measurements taken from PubChem BioAssay AID1963831 (Molecular Pharmacology Branch, DTP, NCI, 2024).

Test system: 889142-216-R-J1-PDC complex spheroid viability
Assay: Anticancer human tumor 889142-216-R-J1-PDC patient-derived bladder carcinoma cell line growth inhibition [POLQ]
Conditions: for IC50: curve of first compound; for viability, T/C: stronger effect = lower value
Outline: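 Growth inhibition in 3D: complex spheroids (tumor PDC, HUVEC, MSC) treated with POLQ inhibitor combinations; where Cmax unknown, highest tested concentration 10 microM, except SN-38 at 1 microM.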

[1] = second compound 0.0316 µM, first compound 0.0316 µM
[2] = second compound 0.0316 µM, first compound 0.1 µM
[3] = second compound 0.1 µM, first compound 0.0316 µM
[4] = second compound 0.1 µM, first compound 0.1 µM
[5] = second compound 0.316 µM, first compound 0.0316 µM
[6] = second compound 0.316 µM, first compound 0.1 µM
[7] = second compound 1 µM, first compound 0.0316 µM
[8] = second compound 1 µM, first compound 0.1 µM
[9] = second compound 3.16 µM, first compound 0.0316 µM
[10] = second compound 3.16 µM, first compound 0.1 µM
[11] = second compound 10 µM, first compound 0.0316 µM
[12] = second compound 10 µM, first compound 0.1 µM
[13] = second compound 0.0316 µM, first compound 0.316 µM
[14] = second compound 0.0316 µM, first compound 1 µM
[15] = second compound 0.0316 µM, first compound 3.16 µM
[16] = second compound 0.0316 µM, first compound 10 µM
[17] = second compound 0.1 µM, first compound 0.316 µM
[18] = second compound 0.1 µM, first compound 1 µM
[19] = second compound 0.1 µM, first compound 3.16 µM
[20] = second compound 0.1 µM, first compound 10 µM
[21] = second compound 0.316 µM, first compound 0.316 µM
[22] = second compound 0.316 µM, first compound 1 µM
[23] = second compound 0.316 µM, first compound 3.16 µM
[24] = second compound 0.316 µM, first compound 10 µM
[25] = second compound 1 µM, first compound 0.316 µM
[26] = second compound 1 µM, first compound 1 µM
[27] = second compound 1 µM, first compound 3.16 µM
[28] = second compound 1 µM, first compound 10 µM
[29] = second compound 3.16 µM, first compound 0.316 µM
[30] = second compound 3.16 µM, first compound 1 µM
[31] = second compound 3.16 µM, first compound 3.16 µM
[32] = second compound 3.16 µM, first compound 10 µM
[33] = second compound 10 µM, first compound 0.316 µM
[34] = second compound 10 µM, first compound 1 µM
[35] = second compound 10 µM, first compound 3.16 µM
[36] = second compound 10 µM, first compound 10 µM
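Also: spheroids exposed to compounds for seven days.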
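For viability, T/C in this document: 100% = DMSO vehicle control viability.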

## Cn1ncnc1[C@H]1c2n[nH]c(=O)c3cc(F)cc(c23)N[C@@H]1c1ccc(F)cc1 + COC1C(OC(N)=O)C(O)C(Oc2ccc3c(O)c(NC(=O)c4ccc(O)c(CC=C(C)C)c4)c(=O)oc3c2C)OC1(C)C
Second compound 0.0316 µM
  IC50: > 100 nM
Second compound 0.1 µM
  IC50: > 100 nM
Second compound 0.316 µM
  IC50: > 100 nM
Second compound 1 µM
  IC50: > 100 nM
Second compound 3.16 µM
  IC50: > 100 nM
Second compound 10 µM
  IC50: > 100 nM
Second compound 0.0316 µM, first compound 0.000316 µM
  viability, T/C: 97%
Second compound 0.0316 µM, first compound 0.001 µM
  viability, T/C: 95%
Second compound 0.0316 µM, first compound 0.00316 µM
  viability, T/C: 93.1%
Second compound 0.0316 µM, first compound 0.01 µM
  viability, T/C: 80.6%
[1]
  viability, T/C: 73.3%
[2]
  viability, T/C: 76.8%
Second compound 0.1 µM, first compound 0.000316 µM
  viability, T/C: 108%
Second compound 0.1 µM, first compound 0.001 µM
  viability, T/C: 92.7%
Second compound 0.1 µM, first compound 0.00316 µM
  viability, T/C: 74.2%
Second compound 0.1 µM, first compound 0.01 µM
  viability, T/C: 73.7%
[3]
  viability, T/C: 73.4%
[4]
  viability, T/C: 72.5%
Second compound 0.316 µM, first compound 0.000316 µM
  viability, T/C: 90.8%
Second compound 0.316 µM, first compound 0.001 µM
  viability, T/C: 87.8%
Second compound 0.316 µM, first compound 0.00316 µM
  viability, T/C: 90.9%
Second compound 0.316 µM, first compound 0.01 µM
  viability, T/C: 91.9%
[5]
  viability, T/C: 85%
[6]
  viability, T/C: 66.6%
Second compound 1 µM, first compound 0.000316 µM
  viability, T/C: 88.9%
Second compound 1 µM, first compound 0.001 µM
  viability, T/C: 77.4%
Second compound 1 µM, first compound 0.00316 µM
  viability, T/C: 89.2%
Second compound 1 µM, first compound 0.01 µM
  viability, T/C: 117%
[7]
  viability, T/C: 85%
[8]
  viability, T/C: 79.6%
Second compound 3.16 µM, first compound 0.000316 µM
  viability, T/C: 97.9%
Second compound 3.16 µM, first compound 0.001 µM
  viability, T/C: 100%
Second compound 3.16 µM, first compound 0.00316 µM
  viability, T/C: 103%
Second compound 3.16 µM, first compound 0.01 µM
  viability, T/C: 83.9%
[9]
  viability, T/C: 71.5%
[10]
  viability, T/C: 74.1%
Second compound 10 µM, first compound 0.000316 µM
  viability, T/C: 72.9%
Second compound 10 µM, first compound 0.001 µM
  viability, T/C: 115%
Second compound 10 µM, first compound 0.00316 µM
  viability, T/C: 89.8%
Second compound 10 µM, first compound 0.01 µM
  viability, T/C: 119%
[11]
  viability, T/C: 80.4%
[12]
  viability, T/C: 59.6%

## Nc1ccn(C2OC(CO)C(O)C2(F)F)c(=O)n1 (stereo unspecified) + COC1C(OC(N)=O)C(O)C(Oc2ccc3c(O)c(NC(=O)c4ccc(O)c(CC=C(C)C)c4)c(=O)oc3c2C)OC1(C)C
Second compound 0.0316 µM
  IC50: 830 nM
Second compound 0.1 µM
  IC50: 225 nM
Second compound 0.316 µM
  IC50: 202 nM
Second compound 1 µM
  IC50: 250 nM
Second compound 3.16 µM
  IC50: 180 nM
Second compound 10 µM
  IC50: 533 nM
[1]
  viability, T/C: 60.8%
[2]
  viability, T/C: 49.5%
[13]
  viability, T/C: 51.2%
[14]
  viability, T/C: 49.7%
[15]
  viability, T/C: 43.4%
[16]
  viability, T/C: 27.4%
[3]
  viability, T/C: 78.2%
[4]
  viability, T/C: 60%
[17]
  viability, T/C: 41%
[18]
  viability, T/C: 43.5%
[19]
  viability, T/C: 42.4%
[20]
  viability, T/C: 28.4%
[5]
  viability, T/C: 68.4%
[6]
  viability, T/C: 56.6%
[21]
  viability, T/C: 44.5%
[22]
  viability, T/C: 38.9%
[23]
  viability, T/C: 43.5%
[24]
  viability, T/C: 31.8%
[7]
  viability, T/C: 64.5%
[8]
  viability, T/C: 58.3%
[25]
  viability, T/C: 45.5%
[26]
  viability, T/C: 42.1%
[27]
  viability, T/C: 37.6%
[28]
  viability, T/C: 30.3%
[9]
  viability, T/C: 64.5%
[10]
  viability, T/C: 52.4%
[29]
  viability, T/C: 43.7%
[30]
  viability, T/C: 43.7%
[31]
  viability, T/C: 38.1%
[32]
  viability, T/C: 31.4%
[11]
  viability, T/C: 72.5%
[12]
  viability, T/C: 60.2%
[33]
  viability, T/C: 52.7%
[34]
  viability, T/C: 45.3%
[35]
  viability, T/C: 42.6%
[36]
  viability, T/C: 30.5%

## O=C(c1cc(Cc2n[nH]c(=O)c3ccccc23)ccc1F)N1CCN(C(=O)C2CC2)CC1 + COC1C(OC(N)=O)C(O)C(Oc2ccc3c(O)c(NC(=O)c4ccc(O)c(CC=C(C)C)c4)c(=O)oc3c2C)OC1(C)C
Second compound 0.0316 µM
  IC50: > 10000 nM
Second compound 0.1 µM
  IC50: > 10000 nM
Second compound 0.316 µM
  IC50: > 10000 nM
Second compound 1 µM
  IC50: > 10000 nM
Second compound 3.16 µM
  IC50: > 10000 nM
Second compound 10 µM
  IC50: > 10000 nM
[1]
  viability, T/C: 93%
[2]
  viability, T/C: 92.2%
[13]
  viability, T/C: 77.2%
[14]
  viability, T/C: 103%
[15]
  viability, T/C: 71%
[16]
  viability, T/C: 68.6%
[3]
  viability, T/C: 101%
[4]
  viability, T/C: 117%
[17]
  viability, T/C: 104%
[18]
  viability, T/C: 109%
[19]
  viability, T/C: 80.5%
[20]
  viability, T/C: 83.5%
[5]
  viability, T/C: 94.4%
[6]
  viability, T/C: 111%
[21]
  viability, T/C: 114%
[22]
  viability, T/C: 102%
[23]
  viability, T/C: 95.5%
[24]
  viability, T/C: 72%
[7]
  viability, T/C: 122%
[8]
  viability, T/C: 116%
[25]
  viability, T/C: 109%
[26]
  viability, T/C: 79.3%
[27]
  viability, T/C: 82.5%
[28]
  viability, T/C: 65.5%
[9]
  viability, T/C: 123%
[10]
  viability, T/C: 109%
[29]
  viability, T/C: 104%
[30]
  viability, T/C: 101%
[31]
  viability, T/C: 78.4%
[32]
  viability, T/C: 75.5%
[11]
  viability, T/C: 129%
[12]
  viability, T/C: 106%
[33]
  viability, T/C: 84.4%
[34]
  viability, T/C: 84.8%
[35]
  viability, T/C: 103%
[36]
  viability, T/C: 77.9%
